Values of other authors in patent publication US12365919B2, “Serum-free suspension system for lentiviral production” (priority 2016, dated 2025).

Test system: lentiviral vector production
Settings: serum-based culture system; worked only ~50% as well as caffeine

## CCCC(=O)[O-].[Na+] [sodium butyrate]
  lentiviral vector production enhancement, relative to caffeine: ~50%
